Results reported in ChEMBL document CHEMBL3853300, “Synthesis of α-santonin derived acetyl santonous acid triazole derivatives and their bioevaluation for T and B-cell proliferation” (Eur J Med Chem, 2016).

Columns and labels:
B = experiment: Immunosuppressive activity in Balb/c mouse B cells assessed as inhibition of LPS-induced cell proliferation after 48 hrs by MTT assay relative to control; format: functional, cell-based
T-cell = experiment: Immunosuppressive activity in Balb/c mouse T cells assessed as inhibition of ConA-induced cell proliferation after 48 hrs by MTT assay relative to control; format: functional, cell-based
[1] = Immunosuppressive activity in Balb/c mouse T cells assessed as inhibition of ConA-induced cell proliferation at 1 uM after 48 hrs by MTT assay relative to control; format: functional
Mus musculus [2] = species on record: Mus musculus; experiment: Cytotoxicity against Balb/c mouse T cells assessed as decrease in cell viability at 1 uM after 48 hrs by MTT assay; format: toxicity, cell-based
[3] = Immunosuppressive activity in Balb/c mouse B cells assessed as inhibition of LPS-induced cell proliferation at 1 uM after 48 hrs by MTT assay relative to control; format: functional
Mus musculus [4] = species on record: Mus musculus; experiment: Cytotoxicity against Balb/c mouse T cells assessed as decrease in cell viability at 10 uM after 48 hrs by MTT assay; format: toxicity, cell-based
Mus musculus [5] = species on record: Mus musculus; experiment: Cytotoxicity against Balb/c mouse B cells assessed as decrease in cell viability at 1 uM after 48 hrs by MTT assay; format: toxicity, cell-based
[6] = Immunosuppressive activity in Balb/c mouse B cells assessed as inhibition of LPS-induced cell proliferation at 10 uM after 48 hrs by MTT assay relative to control; format: functional
[7] = Immunosuppressive activity in Balb/c mouse B cells assessed as inhibition of LPS-induced cell proliferation at 50 uM after 48 hrs by MTT assay relative to control; format: functional
Mus musculus [8] = species on record: Mus musculus; experiment: Cytotoxicity against Balb/c mouse B cells assessed as decrease in cell viability at 100 uM after 48 hrs by MTT assay; format: toxicity, cell-based
Mus musculus [9] = species on record: Mus musculus; experiment: Cytotoxicity against Balb/c mouse B cells assessed as decrease in cell viability at 10 uM after 48 hrs by MTT assay; format: toxicity, cell-based
[10] = Immunosuppressive activity in Balb/c mouse B cells assessed as inhibition of LPS-induced cell proliferation at 100 uM after 48 hrs by MTT assay relative to control; format: functional
[11] = Immunosuppressive activity in Balb/c mouse T cells assessed as inhibition of ConA-induced cell proliferation at 10 uM after 48 hrs by MTT assay relative to control; format: functional
Mus musculus [12] = species on record: Mus musculus; experiment: Cytotoxicity against Balb/c mouse T cells assessed as decrease in cell viability at 100 uM after 48 hrs by MTT assay; format: toxicity, cell-based
[13] = Immunosuppressive activity in Balb/c mouse T cells assessed as inhibition of ConA-induced cell proliferation at 100 uM after 48 hrs by MTT assay relative to control; format: functional
[14] = Immunostimulatory activity in Balb/c mouse T cells assessed as induction of ConA-induced cell proliferation at 10 uM after 48 hrs by MTT assay relative to control; format: cell-based
[15] = Immunostimulatory activity in Balb/c mouse T cells assessed as induction of ConA-induced cell proliferation at 1 uM after 48 hrs by MTT assay relative to control; format: cell-based
[16] = Immunostimulatory activity in Balb/c mouse B cells assessed as induction of LPS-induced cell proliferation at 1 uM after 48 hrs by MTT assay relative to control; format: cell-based
[17] = Immunostimulatory activity in Balb/c mouse B cells assessed as induction of LPS-induced cell proliferation at 100 uM after 48 hrs by MTT assay relative to control; format: cell-based
[18] = Immunostimulatory activity in Balb/c mouse B cells assessed as induction of LPS-induced cell proliferation at 10 uM after 48 hrs by MTT assay relative to control; format: cell-based

**Q.** With CC(=O)Oc1cc(C)c2c(c1C)C[C@H]([C@@H](C)C(=O)O)CC2 as the molecule, how does the inhibition (B) read?
**A.** Dose-dependent effect

**Q.** And the inhibition (T-cell)?
**A.** Dose-dependent effect

**Q.** And the inhibition at 1 µM [1]?
**A.** 31.8%

**Q.** And the Activity (Mus musculus [2])?
**A.** Toxic

**Q.** What about the inhibition at 1 µM [3] of the same molecule?
**A.** 58.8%

**Q.** What about the Activity (Mus musculus [4]) of the same molecule?
**A.** Toxic

**Q.** What about the Activity (Mus musculus [5]) of the same molecule?
**A.** Toxic

**Q.** And the inhibition at 10 µM [6]?
**A.** 57.2%

**Q.** What about the inhibition at 50 µM [7] of the same molecule?
**A.** 75%

**Q.** And the Activity (Mus musculus [8])?
**A.** Non-Toxic

**Q.** What about the Activity (Mus musculus [9]) of the same molecule?
**A.** Toxic

**Q.** And the inhibition at 100 µM [10]?
**A.** 71.8%

**Q.** What about the inhibition at 10 µM [11] of the same molecule?
**A.** 52.3%

**Q.** What about the Activity (Mus musculus [12]) of the same molecule?
**A.** Non-Toxic

**Q.** And the inhibition at 100 µM [13]?
**A.** 75%

**Q.** For CC1=C2[C@H]3OC(=O)[C@@H](C)[C@@H]3CC[C@@]2(C)C=CC1=O [SANTONIN], which inhibition (B) is on record?
**A.** Dose-dependent effect

**Q.** And the inhibition (T-cell)?
**A.** Dose-dependent effect

**Q.** And the inhibition at 1 µM [1]?
**A.** 39.4%

**Q.** And the Activity [14]?
**A.** 3.66%

**Q.** And the Activity (Mus musculus [2])?
**A.** Non-Toxic

**Q.** And the inhibition at 1 µM [3]?
**A.** 21.1%

**Q.** And the Activity (Mus musculus [4])?
**A.** Non-Toxic

**Q.** And the Activity (Mus musculus [5])?
**A.** Non-Toxic

**Q.** What about the inhibition at 10 µM [6] of the same molecule?
**A.** 26.8%

**Q.** What about the Activity (Mus musculus [8]) of the same molecule?
**A.** Non-Toxic

**Q.** And the Activity (Mus musculus [9])?
**A.** Non-Toxic

**Q.** And the inhibition at 100 µM [10]?
**A.** 37.6%

**Q.** What about the Activity (Mus musculus [12]) of the same molecule?
**A.** Non-Toxic

**Q.** What about the inhibition at 100 µM [13] of the same molecule?
**A.** 6.09%

**Q.** Which results are given for CC(=O)Oc1cc(C)c2c(c1C)C[C@H]([C@@H](C)C(=O)OCc1cn(-c3ccccc3C#N)nn1)CC2?
**A.** inhibition (B): Dose-dependent effect; inhibition (T-cell): Dose-dependent effect; Activity [15]: 12.96%; Activity (Mus musculus [2]): Toxic; inhibition at 1 µM [3]: 40%; Activity (Mus musculus [4]): Toxic; Activity (Mus musculus [5]): Toxic; inhibition at 10 µM [6]: 26.3%; Activity (Mus musculus [8]): Toxic; Activity (Mus musculus [9]): Toxic; inhibition at 100 µM [10]: 25.1%; inhibition at 10 µM [11]: 4.62%; Activity (Mus musculus [12]): Toxic; inhibition at 100 µM [13]: 6.48%

**Q.** What does the source list for CC(=O)Oc1cc(C)c2c(c1C)C[C@H]([C@@H](C)C(=O)OCc1cn(-c3ccc(O)cc3C)nn1)CC2?
**A.** inhibition (B): Dose-dependent effect; inhibition (T-cell): Dose-dependent effect; inhibition at 1 µM [1]: 22.7%; Activity [14]: 1.33%; Activity (Mus musculus [2]): Non-Toxic; inhibition at 1 µM [3]: 68.8%; Activity (Mus musculus [4]): Non-Toxic; Activity (Mus musculus [5]): Non-Toxic; inhibition at 10 µM [6]: 77.1%; Activity (Mus musculus [8]): Toxic; Activity (Mus musculus [9]): Non-Toxic; inhibition at 100 µM [10]: 79.7%; Activity (Mus musculus [12]): Toxic; inhibition at 100 µM [13]: 54.7%

**Q.** With CC(=O)Oc1cc(C)c2c(c1C)C[C@H]([C@@H](C)C(=O)OCc1cn(-c3cccc(C#N)c3)nn1)CC2 as the molecule, how does the inhibition at 1 µM [1] read?
**A.** 20.4%

**Q.** And the Activity (Mus musculus [2])?
**A.** Toxic

**Q.** What about the Activity (Mus musculus [4]) of the same molecule?
**A.** Non-Toxic

**Q.** And the Activity [16]?
**A.** 8%

**Q.** And the Activity (Mus musculus [5])?
**A.** Toxic

**Q.** What about the Activity [17] of the same molecule?
**A.** 37.71%

**Q.** And the Activity [18]?
**A.** 42.28%

**Q.** And the Activity (Mus musculus [8])?
**A.** Toxic

**Q.** What about the Activity (Mus musculus [9]) of the same molecule?
**A.** Non-Toxic

**Q.** And the inhibition at 10 µM [11]?
**A.** 25.9%

**Q.** And the Activity (Mus musculus [12])?
**A.** Toxic

**Q.** And the inhibition at 100 µM [13]?
**A.** 45.4%

**Q.** Which results are given for CC(=O)Oc1cc(C)c2c(c1C)C[C@H]([C@@H](C)C(=O)OCc1cn(-c3ccc4c(c3)OCO4)nn1)CC2?
**A.** inhibition (B): Dose-dependent effect; inhibition (T-cell): Dose-dependent effect; inhibition at 1 µM [1]: 27.8%; Activity [14]: 16.66%; Activity (Mus musculus [2]): Non-Toxic; inhibition at 1 µM [3]: 40.6%; Activity (Mus musculus [4]): Toxic; Activity (Mus musculus [5]): Non-Toxic; inhibition at 10 µM [6]: 33.9%; Activity (Mus musculus [8]): Non-Toxic; Activity (Mus musculus [9]): Toxic; inhibition at 100 µM [10]: 22.3%; Activity (Mus musculus [12]): Non-Toxic; inhibition at 100 µM [13]: 32.4%

**Q.** What does the source list for CC(=O)Oc1cc(C)c2c(c1C)C[C@H]([C@@H](C)C(=O)OCc1cn(Cc3ccc(Br)cc3)nn1)CC2?
**A.** inhibition (B): Dose-dependent effect; inhibition (T-cell): Dose-dependent effect; Activity [15]: 14.15%; Activity (Mus musculus [2]): Non-Toxic; Activity (Mus musculus [4]): Toxic; Activity [16]: 19.71%; Activity (Mus musculus [5]): Non-Toxic; inhibition at 10 µM [6]: 34.1%; Activity (Mus musculus [8]): Toxic; Activity (Mus musculus [9]): Toxic; inhibition at 100 µM [10]: 38.7%; inhibition at 10 µM [11]: 33.9%; Activity (Mus musculus [12]): Toxic; inhibition at 100 µM [13]: 37.4%
